Assay results taken from patent US9428505B2, “Hydantoin derivative” (Chugai Seiyaku Kabushiki Kaisha, priority 2012, dated 2016).

How the values were obtained:
human PTH1R = human PTH1R (Homo sapiens (Human), UniProt Q03431); assay: In vitro cAMP signal activity via the human PTH1R (HKRK-B7 cells); type: cell-based; details: 100 nM human PTH(1-34) = 100%; for EC20: concentration giving 20% cAMP signaling activity; for EC50: concentration giving 50% cAMP signaling activity
Protocol: Measurement of In Vitro cAMP Signal Activity of Compounds Via the Human PTH1R
Human PTH(1-34) and calcitonin were purchased from Peptide Institute, Inc. (Osaka, Japan), dissolved in 10 mM acetic acid to 1 mM and stored in a −80° C. freezer.
Cells were cultured in Dulbecco's modified Eagle's medium (DMEM) supplemented with 10% fetal bovine serum (Hyclone), 100 units/ml penicillin G and 100 μg/ml streptomycin sulfate (Invitrogen Corp) at 37° C. in a humidified atmosphere containing 5% CO2.
cAMP signal transduction analysis utilized LLC-PK1 cells not expressing the PTH1R, and HKRK-B7 cells, that is, LLC-PK1 cells overexpressing the human PTH1R at 9.5×10^5 receptors/cell (Takasu et al., J. Bone. Miner. Res. 14:11-20, 1999).
HKRK-B7 or LLC-PK1 cells were seeded into a 96-well plate at 1×10^5 cells/well and incubated overnight. On the following day, 50 μl of cAMP assay buffer (DMEM, 2 mM IBMX, 0.2 mg/ml bovine serum albumin, 35 mM Hepes-NaOH, pH 7.4) containing human PTH(1-34) or each compound was added and the plate was placed in a 37° C. incubator. The cells were incubated for 20 minutes. After removing the medium, the cells were washed with 100 μl of cAMP assay buffer once. The plate was placed on dry ice powder to freeze the cells and then removed from the dry ice. The cells were lysed with 40 μl of 50 mM HCl and frozen again on dry ice. The amount of intracellular cAMP produced was measured using a commercially available cAMP EIA kit (Biotrack cAMP EIA system, GE health care).
Analyses were performed using a variable gradient S-shaped dose-response curve equation.

[1] = Metabolic stability using human liver microsomes; type: in vitro ADME; details: pH 7.4; human liver microsomes 0.5 mg/mL, compound 1 μM, NADPH 1 mM, 37° C.; read-out: Clearance
Protocol: Examination of Metabolic Stability Using Human Liver Microsomes
In 0.1 M phosphate buffer (pH7.4), human liver microsomes were incubated with a compound or a comparative example in the coexistence of NADPH at 37° C. for a specified amount of time. The concentration of the parent compound at each reaction time was measured using LC/MS/MS, and inherent clearance (μL/min/mg protein) was calculated from the slope of the reaction time versus residual rate.
(§1) Compound concentration: 1 μM
Reaction time: 0, 5, 15, and 30 minutes

[2] = Metabolic stability using rat hepatocyte; type: in vitro ADME; details: for hepatocyte CLint at 1 μM: rat (SD, female) hepatocytes 1×10^6 cells/mL, compound 1 μM, 37° C., read-out: Clearance; for rat hepatocyte metabolic stability compared to Comparative Examples 1, 2, 3, 5, and 6: rat hepatocytes
Protocol: Examination of Metabolic Stability Using Rat Hepatocyte
Liver cells were prepared from the liver of rats (SD, female) by a collagenase perfusion method. A compound of the Examples or a Comparative Example was added, and this was incubated at 37° C. for a specified amount of time, followed by addition of a reaction-stopping solution. The concentration of the parent compound at each reaction time was measured using LC/MS/MS, and inherent clearance (μL/10^6 cells/min) was calculated from the slope of the reaction time versus residual rate.
Cell concentration: 1×10^6 cells/mL
as §1
Medium: Williams' medium E
Reaction-stopping solution: acetonitrile/2-propanol (4/6, v/v)

TPTX rat model = assay: Calcemic action in the TPTX rat model; type: in vivo; details: TPTX rats, oral 30 mg/kg; for change of serum Ca concentration from the Pre-value: up to 24 hours after administration
Protocol: Calcemic Action in the TPTX Rat Model
Four-week old female Crl:CD(SD) rats were obtained from Charles River Japan (Atsugi Breeding Center), and were acclimated to standard laboratory conditions of 20-26° C. and 35-75% humidity for one week. The rats were given tap water and were fed ad libitum with standard rodent chow (CE-2) (CLEA Japan, Inc.) containing 1.1% calcium, 1.0% phosphoric acid, and 250 IU/100 g of vitamin D3.
TPTX was performed on five-week old rats. Some of the individuals were subjected to sham operation (Sham). Individuals whose serum Ca concentration was less than 8 mg/dL on four days after the operation were selected for use as TPTX rats. On five days after the operation, the rats were assigned to eight TPTX groups and one Sham group (n=5, each group) based on their body weight and serum Ca concentration measured on four days after the operation. The solvent alone was orally administered to the Sham group and the TPTX-Vehicle group at a volume of 10 mL/kg. Each test article was orally administered individually to each TPTX test article group by dissolving it in a solvent at a dose of 30 mg/10 mL/kg. The solvent composition was 10% dimethylsulfoxide (Wako Pure Chemical Industries, Ltd.), 10% Cremophor EL (Sigma-Aldrich Japan LLC), 20% hydroxypropyl-β-cyclodextrin (Nihon Shokuhin Kako Co., Ltd.), glycine (Wako Pure Chemical Industries, Ltd.); and the pH was adjusted to 10. Immediately before administration of each sample, Pre-blood collection was performed, and blood collection was carried out at 2, 6, 10, and 24 hours after administration to measure the serum Ca concentration. Each blood collection was carried out from the jugular vein under isoflurane inhalation anesthesia.
Serum Ca measurement: Serum obtained by centrifugation from the collected blood was measured by using an automatic analyzer TBA-120FR (Toshiba Medical Systems Corporation).
For statistical analysis of the animal studies, data are shown as mean±standard error (SE). Statistical analysis were performed by unpaired test of the SAS Preclinical Package (Ver. 5.00.010720, SAS Institute Japan, Tokyo, Japan).

Sequence of human PTH1R (Q03431 27-593): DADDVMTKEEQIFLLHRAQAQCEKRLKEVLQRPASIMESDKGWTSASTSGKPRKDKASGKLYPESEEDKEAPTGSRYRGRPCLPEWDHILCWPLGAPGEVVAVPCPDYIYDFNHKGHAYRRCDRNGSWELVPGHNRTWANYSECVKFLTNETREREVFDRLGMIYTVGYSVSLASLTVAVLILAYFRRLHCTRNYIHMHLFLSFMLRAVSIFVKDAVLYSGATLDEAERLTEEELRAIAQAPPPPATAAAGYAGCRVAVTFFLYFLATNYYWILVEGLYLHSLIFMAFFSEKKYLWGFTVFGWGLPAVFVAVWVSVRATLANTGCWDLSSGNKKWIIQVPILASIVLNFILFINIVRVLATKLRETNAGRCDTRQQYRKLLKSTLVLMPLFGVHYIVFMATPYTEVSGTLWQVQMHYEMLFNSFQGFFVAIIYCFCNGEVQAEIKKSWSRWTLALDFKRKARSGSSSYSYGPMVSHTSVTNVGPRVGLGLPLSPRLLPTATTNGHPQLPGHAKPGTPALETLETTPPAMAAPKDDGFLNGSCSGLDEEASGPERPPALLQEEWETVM

| SMILES | EC20 (human PTH1R) | EC50 (human PTH1R) | microsomal CLint at 1 μM [1] | hepatocyte CLint at 1 μM [2] | achievement of therapeutic target range of serum Ca concentration of 7.6 to 8.8 mg/dL (TPTX rat model) | change of serum Ca concentration from the Pre-value (TPTX rat model) | rat hepatocyte metabolic stability compared to Comparative Examples 1, 2, 3, 5, and 6 [2] |
| --- | --- | --- | --- | --- | --- | --- | --- |
| Cc1cc(N2C(=O)CNC2=O)cc(C)c1CCS(=O)(=O)N1CCC2(CC1)N=C(c1cccc(OC(F)(F)F)c1)NC2=O [Comparative Example 2, reference compound] | 3.1 µM | 13 µM | 61 µL/min/mg | 5.9 µL/min/1e6 cells | could not be achieved | smaller positive changes from the Pre-value |  |
| Cc1cc(N2C(=O)CNC2=O)cc(C)c1CCS(=O)(=O)N1CCC2(CC1)N=C(c1ccc(F)c(C(F)(F)F)c1)NC2=O [Comparative Example 3, reference compound] | 2.0 µM | 9 µM | 74 µL/min/mg | 22 µL/min/1e6 cells |  |  |  |
| CCC1CCC(C2=NC3(CCN(S(=O)(=O)CCc4ccc(N5CC(=O)NC5=O)cc4C)CC3)C(=O)N2)CC1 (centres unmarked) [Comparative Example 4, reference compound] | >505 µM |  | 74 µL/min/mg |  |  |  |  |
| CC[C@H]1CC[C@H](C2=NC3(CCN(S(=O)(=O)CCc4ccc(N5CC(=O)NC5=O)cc4C)CC3)C(=O)N2)CC1 [Comparative Example 4, reference compound] |  | > 1000 µM |  |  |  |  |  |
| CCC1CCC(C2=NC3(CCN(S(=O)(=O)CCc4ccc(N5C(=O)NC(=O)C5C)cc4C)CC3)C(=O)N2)CC1 (centres unmarked) [Comparative Example 5, reference compound] | 3.1 µM |  | 112 µL/min/mg | 22 µL/min/1e6 cells |  |  |  |
| CC[C@H]1CC[C@H](C2=NC3(CCN(S(=O)(=O)CCc4ccc(N5C(=O)NC(=O)C5C)cc4C)CC3)C(=O)N2)CC1 (some centres unmarked) [Comparative Example 5, reference compound] |  | 25 µM |  |  |  |  |  |
| CCC1CCC(C2=NC3(CCN(S(=O)(=O)CCc4ccc(N5C(=O)NC(=O)C5(C)C)cc4C)CC3)C(=O)N2)CC1 (centres unmarked) [Comparative Example 6, reference compound] | 3.6 µM |  | 154 µL/min/mg | 22 µL/min/1e6 cells |  |  |  |
| CC[C@H]1CC[C@H](C2=NC3(CCN(S(=O)(=O)CCc4ccc(N5C(=O)NC(=O)C5(C)C)cc4C)CC3)C(=O)N2)CC1 [Comparative Example 6, reference compound] |  | 32 µM |  |  |  |  |  |
| Cc1cc(N2C(=O)NC(=O)C2(C)C)cc(C)c1CCS(=O)(=O)N1CCC2(CC1)N=C(c1ccc(F)c(OC(F)(F)F)c1)NC2=O [Compound 1, 1-(4-(2-((2-(4-fluoro-3-(trifluoromethoxy)phenyl)-4-oxo-1,3,8-triazaspiro[4.5]deca-1-en-8-yl)sulfonyl)ethyl)-3,5-dimethylphenyl)-5,5-dimethylimidazolidine-2,4-dione] | 1.3 µM | 5.8 µM | 21 µL/min/mg | 7.6 µL/min/1e6 cells | could not be achieved | smaller positive changes from the Pre-value |  |
| Cc1cc(N2C(=O)NC(=O)C2(C)C)cc(C)c1CCS(=O)(=O)N1CCC2(CC1)N=C(c1cccc(Br)c1)NC2=O [Compound 2, 1-(4-(2-((2-(3-bromophenyl)-4-oxo-1,3,8-triazaspiro[4.5]deca-1-en-8-yl)sulfonyl)ethyl)-3,5-dimethylphenyl)-5,5-dimethylimidazolidine-2,4-dione] | 2.4 µM | 14 µM | 38 µL/min/mg | 3 µL/min/1e6 cells |  |  | increased |
| Cc1cc(N2C(=O)NC(=O)C2(C)C)cc(C)c1CCS(=O)(=O)N1CCC2(CC1)N=C(c1ccc(F)c(C(F)(F)F)c1)NC2=O [Compound 3, 1-(4-(2-((2-(4-fluoro-3-(trifluoromethyl)phenyl)-4-oxo-1,3,8-triazaspiro[4.5]deca-1-en-8-yl)sulfonyl)ethyl)-3,5-dimethylphenyl)-5,5-dimethylimidazolidine-2,4-dione] |  |  | 29 µL/min/mg | 17 µL/min/1e6 cells |  |  |  |
| Cc1cc(N2C(=O)NC(=O)C2(C)C)cc(C)c1CCS(=O)(=O)N1CCC2(CC1)N=C(c1ccc(OC(F)(F)F)c(F)c1)NC2=O [Compound 4, 1-(4-(2-((2-(3-fluoro-4-(trifluoromethoxy)phenyl)-4-oxo-1,3,8-triazaspiro[4.5]deca-1-en-8-yl)sulfonyl)ethyl)-3,5-dimethylphenyl)-5,5-dimethylimidazolidine-2,4-dione] | 1.6 µM | 7.4 µM | 27 µL/min/mg | 2.2 µL/min/1e6 cells |  |  | increased |
| Cc1cc(N2C(=O)NC(=O)C2(C)C)cc(C)c1CCS(=O)(=O)N1CCC2(CC1)N=C(c1ccc3c(c1)OC(F)(F)O3)NC2=O [Compound 5, 1-(4-(2-((2-(2,2-difluorobenzo[d][1,3]dioxol-5-yl)-4-oxo-1,3,8-triazaspiro[4.5]deca-1-en-8-yl)sulfonyl)ethyl)-3,5-dimethylphenyl)-5,5-dimethylimidazolidine-2,4-dione] | 1.7 µM | 8.1 µM | 37 µL/min/mg | 1 µL/min/1e6 cells |  |  | increased |
| Cc1cc(N2C(=O)NC(=O)C23CCN(C)CC3)cc(C)c1CCS(=O)(=O)N1CCC2(CC1)N=C(c1ccc(OC(F)(F)F)cc1)NC2=O [Compound 9, 1-(3,5-dimethyl-4-(2-((4-oxo-2-(4-(trifluoromethoxy)phenyl)-1,3,8-triazaspiro[4.5]deca-1-en-8-yl)sulfonyl)ethyl)phenyl)-8-methyl-1,3,8-triazaspiro[4.5]decane-2,4-dione] | 2.6 µM | 12 µM | 28 µL/min/mg | 1.8 µL/min/1e6 cells |  |  | increased |
| Cc1cc(N2C(=O)NC(=O)C23CCCC3)cc(C)c1CCS(=O)(=O)N1CCC2(CC1)N=C(c1cccc(C(F)(F)F)c1)NC2=O [Compound 12, 1-(3,5-dimethyl-4-(2-((4-oxo-2-(3-(trifluoromethyl)phenyl)-1,3,8-triazaspiro[4.5]deca-1-en-8-yl)sulfonyl)ethyl)phenyl)-1,3-diazaspiro[4.4]nonane-2,4-dione] |  |  | 63 µL/min/mg |  |  |  |  |
